Earlier results as cited in PMC9516332 (Frontiers in Oncology, 2022).
Read-outs that look alike come from different tables or passages of the source.

Columns and labels:
Conditions in all cases: cited from earlier work
[1] = molecular target: panel of 255 wild-type kinases (Homo sapiens, UniProt Q00526)
[2] = molecular target: panel of 255 wild-type kinases (Homo sapiens, UniProt P54646)
[3] = molecular target: panel of 255 wild-type kinases (Homo sapiens, UniProt P50613)
[4] = molecular target: panel of 255 wild-type kinases (Homo sapiens, UniProt P07332)
[5] = molecular target: T1, panel of 255 wild-type kinases (Homo sapiens, UniProt P54760)
T1 sequence (P54760 16-987): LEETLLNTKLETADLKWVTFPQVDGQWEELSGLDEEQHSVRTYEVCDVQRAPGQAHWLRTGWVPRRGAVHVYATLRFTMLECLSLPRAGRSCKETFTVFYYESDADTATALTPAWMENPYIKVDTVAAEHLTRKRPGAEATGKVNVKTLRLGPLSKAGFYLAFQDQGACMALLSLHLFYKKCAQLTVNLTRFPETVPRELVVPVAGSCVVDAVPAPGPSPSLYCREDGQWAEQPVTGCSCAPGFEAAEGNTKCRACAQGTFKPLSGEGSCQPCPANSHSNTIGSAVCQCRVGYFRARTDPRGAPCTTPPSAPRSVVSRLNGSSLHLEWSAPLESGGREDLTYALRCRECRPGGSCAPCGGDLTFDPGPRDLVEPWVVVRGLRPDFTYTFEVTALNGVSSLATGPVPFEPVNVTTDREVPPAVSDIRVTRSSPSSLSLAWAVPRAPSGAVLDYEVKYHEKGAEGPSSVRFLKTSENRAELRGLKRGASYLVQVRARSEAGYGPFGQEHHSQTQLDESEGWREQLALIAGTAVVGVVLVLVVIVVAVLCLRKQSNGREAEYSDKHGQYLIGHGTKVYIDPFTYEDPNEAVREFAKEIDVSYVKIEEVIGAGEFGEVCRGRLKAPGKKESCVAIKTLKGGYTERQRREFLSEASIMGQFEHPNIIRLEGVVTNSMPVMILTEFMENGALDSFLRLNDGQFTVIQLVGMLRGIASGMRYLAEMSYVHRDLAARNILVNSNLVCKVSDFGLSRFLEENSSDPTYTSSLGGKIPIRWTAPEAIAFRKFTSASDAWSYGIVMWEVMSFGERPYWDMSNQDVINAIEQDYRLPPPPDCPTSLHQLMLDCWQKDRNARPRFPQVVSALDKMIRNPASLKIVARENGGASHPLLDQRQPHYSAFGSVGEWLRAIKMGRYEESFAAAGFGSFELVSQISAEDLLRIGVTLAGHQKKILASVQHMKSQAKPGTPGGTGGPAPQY

[6] = molecular target: T2, panel of 255 wild-type kinases (Homo sapiens, UniProt O14757)
T2 sequence (O14757 1-476): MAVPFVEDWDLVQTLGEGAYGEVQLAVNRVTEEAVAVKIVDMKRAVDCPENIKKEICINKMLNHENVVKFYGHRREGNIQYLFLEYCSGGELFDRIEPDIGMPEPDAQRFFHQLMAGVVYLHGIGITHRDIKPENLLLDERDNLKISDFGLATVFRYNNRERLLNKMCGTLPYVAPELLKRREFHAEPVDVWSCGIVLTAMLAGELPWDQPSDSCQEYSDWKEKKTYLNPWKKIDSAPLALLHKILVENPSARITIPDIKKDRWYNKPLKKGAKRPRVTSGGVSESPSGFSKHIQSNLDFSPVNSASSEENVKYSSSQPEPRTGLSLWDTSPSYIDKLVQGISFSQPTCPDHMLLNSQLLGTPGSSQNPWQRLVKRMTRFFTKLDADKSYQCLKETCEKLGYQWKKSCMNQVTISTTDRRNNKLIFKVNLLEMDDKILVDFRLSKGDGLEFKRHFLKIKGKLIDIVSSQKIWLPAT

[7] = molecular target: panel of 255 wild-type kinases (Homo sapiens, UniProt P24941)
[8] = molecular target: panel of 255 wild-type kinases (Homo sapiens, UniProt P51812)
[9] = molecular target: panel of 255 wild-type kinases (Homo sapiens, UniProt P07948)
[10] = molecular target: panel of 255 wild-type kinases (Homo sapiens, UniProt P16591)
[11] = molecular target: panel of 255 wild-type kinases (Homo sapiens, UniProt P50750)
[12] = molecular target: panel of 255 wild-type kinases (Homo sapiens, UniProt P31749)
[13] = CDK3/CycE1 kinase assay, 1 µmol/L single concentration, ref DOI: 10.1158/1535-7163.MCT-18-0877
[14] = AMPKα2/β1/γ1 kinase assay, 1 µmol/L single concentration, ref DOI: 10.1158/1535-7163.MCT-18-0877
[15] = CDK7/CycH/MAT1 kinase assay, 1 µmol/L single concentration, ref DOI: 10.1158/1535-7163.MCT-18-0877
[16] = kinase FES, 1 µmol/L single concentration, ref DOI: 10.1158/1535-7163.MCT-18-0877
[17] = kinase EPHB4, 1 µmol/L single concentration, ref DOI: 10.1158/1535-7163.MCT-18-0877
[18] = CHK1 kinase assay, 1 µmol/L single concentration, ref DOI: 10.1158/1535-7163.MCT-18-0877
[19] = CDK2/CycA2 kinase assay, 1 µmol/L single concentration, ref DOI: 10.1158/1535-7163.MCT-18-0877
[20] = CDK2/CycE1 kinase assay, 1 µmol/L single concentration, ref DOI: 10.1158/1535-7163.MCT-18-0877
[21] = kinase RSK2, 1 µmol/L single concentration, ref DOI: 10.1158/1535-7163.MCT-18-0877
[22] = kinase LYNa, 1 µmol/L single concentration, ref DOI: 10.1158/1535-7163.MCT-18-0877
[23] = kinase FER, 1 µmol/L single concentration, ref DOI: 10.1158/1535-7163.MCT-18-0877
[24] = CDK9/CycT1 kinase assay, 1 µmol/L single concentration, ref DOI: 10.1158/1535-7163.MCT-18-0877
[25] = AKT1 kinase assay, 1 µmol/L single concentration, ref DOI: 10.1158/1535-7163.MCT-18-0877

O=C(c1ccc(F)c(F)c1Nc1ccc(I)cc1F)N1CC(O)([C@@H]2CCCCN2)C1 [cobimetinib]
%-inhibition CDK3/CycE1 [1, 13]: 2.16% | %-inhibition AMPKα2/β1/γ1 [2, 14]: 9% | %-inhibition CDK7/CycH/MAT1 [3, 15]: 6% | %-inhibition at 1 µmol/L, FES [4, 16]: 1.67% | %-inhibition at 1 µmol/L, EPHB4 [5, 17]: -2.41% | %-inhibition CHK1 [6, 18]: 9% | %-inhibition CDK2/CycA2 [7, 19]: -8% | %-inhibition CDK2/CycE1 [7, 20]: -8% | %-inhibition at 1 µmol/L, RSK2 [8, 21]: 6% | %-inhibition at 1 µmol/L, LYNa [9, 22]: -1.81% | %-inhibition at 1 µmol/L, FER [10, 23]: 4% | %-inhibition CDK9/CycT1 [11, 24]: 1.36% | %-inhibition AKT1 [12, 25]: -7%

C=CC(=O)Nc1cc(Nc2nccc(-c3cn(C)c4ccccc34)n2)c(OC)cc1N(C)CCN(C)C [osimertinib]
%-inhibition CDK3/CycE1 [1, 13]: 22% | %-inhibition AMPKα2/β1/γ1 [2, 14]: 11% | %-inhibition CDK7/CycH/MAT1 [3, 15]: 8.57% | %-inhibition at 1 µmol/L, FES [4, 16]: 42% | %-inhibition at 1 µmol/L, EPHB4 [5, 17]: -3% | %-inhibition CHK1 [6, 18]: 11% | %-inhibition CDK2/CycA2 [7, 19]: -6% | %-inhibition CDK2/CycE1 [7, 20]: 24% | %-inhibition at 1 µmol/L, RSK2 [8, 21]: 42% | %-inhibition at 1 µmol/L, LYNa [9, 22]: 0.63% | %-inhibition at 1 µmol/L, FER [10, 23]: 78% | %-inhibition CDK9/CycT1 [11, 24]: 0.721% | %-inhibition AKT1 [12, 25]: -9%

Cc1cc(Nc2ncc(Cl)c(Nc3ccccc3S(=O)(=O)C(C)C)n2)c(OC(C)C)cc1C1CCNCC1 [ceritinib]
%-inhibition CDK3/CycE1 [1, 13]: -3.17% | %-inhibition AMPKα2/β1/γ1 [2, 14]: 40% | %-inhibition CDK7/CycH/MAT1 [3, 15]: 45% | %-inhibition at 1 µmol/L, FES [4, 16]: 99% | %-inhibition at 1 µmol/L, EPHB4 [5, 17]: 3.73% | %-inhibition CHK1 [6, 18]: 1.32% | %-inhibition CDK2/CycA2 [7, 19]: -5.32% | %-inhibition CDK2/CycE1 [7, 20]: -7.57% | %-inhibition at 1 µmol/L, RSK2 [8, 21]: 83% | %-inhibition at 1 µmol/L, LYNa [9, 22]: 16% | %-inhibition at 1 µmol/L, FER [10, 23]: 100% | %-inhibition CDK9/CycT1 [11, 24]: 0.194% | %-inhibition AKT1 [12, 25]: -8%

COc1cc(N2CCC(N3CCN(C)CC3)CC2)ccc1Nc1ncc(Cl)c(Nc2ccccc2P(C)(C)=O)n1 [brigatinib]
%-inhibition CDK3/CycE1 [1]: 0.848% | %-inhibition AMPKα2/β1/γ1 [2]: 90% | %-inhibition CDK7/CycH/MAT1 [3]: 55% | %-inhibition at 1 µmol/L, FES [4]: 100% | %-inhibition at 1 µmol/L, EPHB4 [5]: 9% | %-inhibition CHK1 [6]: 96% | %-inhibition CDK2/CycA2 [7]: 53% | %-inhibition CDK2/CycE1 [7]: 30% | %-inhibition at 1 µmol/L, RSK2 [8]: 97% | %-inhibition at 1 µmol/L, LYNa [9]: 51% | %-inhibition at 1 µmol/L, FER [10]: 102% | %-inhibition CDK9/CycT1 [11]: 5.35% | %-inhibition AKT1 [12]: 1.5%
